Test results taken from publication PMC3211141 (Anesthesiology, 2011).
Where two headings read alike, the source gives them in different places.

Legend:
[1] = system: homomeric and heteromeric TASK channels; assay: Whole-cell recording, statements across all tested TASK channel constructs; type: cell-based
wild-type mice = assay: Electroencephalogram recording of bupivacaine-induced seizures, wild type mice; type: in vivo; details: control (wild type) mice, two lower bupivacaine doses, n=6
TASK−/− mice = type: in vivo; details: two lower bupivacaine doses, n=6
wild-type C57BL/6 mice = details: for seizure incidence (N=seizure/total) / seizure incidence (% of mice) / seizure duration (typical) / EC50 for induction of seizures: iv; for EC50 for induction of seizures: wild type mice, quantal dose-response
[2] = system: TASK-1−/−:TASK-3−/− double knockout mice; details: for EC50 for induction of seizures / seizure duration (typical): iv
[3] = biological target: TASK-1/TASK-3 heterodimeric channels (Rattus norvegicus, UniProt O54912+Q9ES08); type: cell-based; details: exemplar cell
[4] = C57BL/6, mouse, in vivo, 2.5 mg/kg
[5] = C57BL/6, mouse, in vivo, 3.75 mg/kg
[6] = C57BL/6, mouse, in vivo, 5 mg/kg
[7] = C57BL/6, mouse, in vivo, 6.25 mg/kg
[8] = C57BL/6, mouse, in vivo, 7.5 mg/kg
[9] = C57BL/6 background (TASK-1−/−:TASK-3−/− double knockout), mouse, in vivo
[10] = TASK−/− mice, quantal dose-response
[11] = C57BL/6, mouse, in vivo, 10 mg/kg

Chain of TASK-1/TASK-3 heterodimeric channels (O54912 whole entry): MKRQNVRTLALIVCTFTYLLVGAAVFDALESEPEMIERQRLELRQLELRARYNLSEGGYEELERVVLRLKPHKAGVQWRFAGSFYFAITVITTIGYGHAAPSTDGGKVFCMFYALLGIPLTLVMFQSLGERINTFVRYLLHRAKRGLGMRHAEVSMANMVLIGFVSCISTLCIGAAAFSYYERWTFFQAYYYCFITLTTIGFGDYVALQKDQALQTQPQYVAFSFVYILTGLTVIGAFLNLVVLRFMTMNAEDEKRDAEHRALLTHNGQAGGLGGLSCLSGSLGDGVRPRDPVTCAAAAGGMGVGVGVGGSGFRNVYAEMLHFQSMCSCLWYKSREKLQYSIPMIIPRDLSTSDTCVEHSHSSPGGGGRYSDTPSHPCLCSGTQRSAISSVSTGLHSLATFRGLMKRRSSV
Chain of TASK-1/TASK-3 heterodimeric channels (Q9ES08 whole entry): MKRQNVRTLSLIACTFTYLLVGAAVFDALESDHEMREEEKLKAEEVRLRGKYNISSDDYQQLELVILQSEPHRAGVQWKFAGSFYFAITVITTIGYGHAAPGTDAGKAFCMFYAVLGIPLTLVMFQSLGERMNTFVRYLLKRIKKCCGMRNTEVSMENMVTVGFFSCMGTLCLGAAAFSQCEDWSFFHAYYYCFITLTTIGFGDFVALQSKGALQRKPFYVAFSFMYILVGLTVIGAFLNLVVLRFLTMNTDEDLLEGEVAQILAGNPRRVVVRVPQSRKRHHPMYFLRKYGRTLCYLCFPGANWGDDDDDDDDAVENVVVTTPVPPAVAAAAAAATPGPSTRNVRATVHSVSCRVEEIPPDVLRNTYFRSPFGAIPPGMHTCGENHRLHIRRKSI

Compound	seizure incidence (N=seizure/total) (wild-type C57BL/6 mice; [4])	seizure incidence (N=seizure/total) (wild-type C57BL/6 mice; [6])	seizure incidence (N=seizure/total) (wild-type C57BL/6 mice; [7])	seizure incidence (N=seizure/total) (wild-type C57BL/6 mice; [8])	EC50 for induction of seizures (wild-type C57BL/6 mice)	EC50 for induction of seizures [2, 10]	seizure duration (typical) (wild-type C57BL/6 mice; C57BL/6, mouse, in vivo)	seizure incidence (N=seizure/total) (wild-type C57BL/6 mice; [11])	seizure duration (typical) [2, 9]	further results
CCCCN1CCCCC1C(=O)Nc1c(C)cccc1C (centres unmarked) [bupivacaine]	1/14	14/14	12/12	4/4	3.4 ± 0.1 mg/kg	4.5 ± 0.1 mg/kg				fold more potent than lidocaine for TASK channel inhibition [1]: 3.1- to 4.4 fold; fold more potent than ropivacaine for TASK channel inhibition ([1]; across TASK channels): 1.4- to 1.7 fold; electroencephalogram peak frequency during seizures (wild-type mice): 3.4 ± 0.4 Hz; electroencephalogram peak frequency during seizures (TASK−/− mice): ~ 4.4 ± 0.2 Hz; fold more potent for induction of seizures than ropivacaine (wild-type C57BL/6 mice; C57BL/6, mouse, in vivo): ~ 1.4 fold; seizure incidence (% of mice) (wild-type C57BL/6 mice; [5]): ~ 71%; seizure duration (typical) (wild-type C57BL/6 mice; mouse, in vivo): significantly longer in duration; fold more potent for induction of seizures than ropivacaine [2, 9]: ~ 1.4 fold
CCN(CC)CC(=O)Nc1c(C)cccc1C [lidocaine]		0/15					< 25 s	4/15	< 25 s	seizure incidence (N=seizure/total) (wild-type C57BL/6 mice; C57BL/6, mouse, in vivo, 15 mg/kg): 10/15; seizure incidence (N=seizure/total) (wild-type C57BL/6 mice; C57BL/6, mouse, in vivo, 17.5 mg/kg): 13/15; EC50 for induction of seizures ([2]; mouse, in vivo): 17.3 ± 1.0 mg/kg
CCCN1CCCC[C@H]1C(=O)Nc1c(C)cccc1C [ropivacaine]	0/14	10/14	14/14	11/11	4.7 ± 0.1 mg/kg	6.0 ± 0.2 mg/kg	< 150 s	3/3	< 150 s	seizure incidence (N=seizure/total) (wild-type C57BL/6 mice; [5]): 0/14; seizure incidence (% of mice) (wild-type C57BL/6 mice; [6]): ~ 72%; seizure incidence (N=seizure/total) (wild-type C57BL/6 mice; C57BL/6, mouse, in vivo, 8.75 mg/kg): 9/9
picrotoxin					~ 1.0 mg/kg	~ 1.0 mg/kg				effect on peak TASK-1/TASK-3 current ([3]; 100 μM): no discernible effect; decrease in peak TASK-1/TASK-3 current ([3]; 300 μM): < 10%; decrease in current amplitude (averaged, non-significant) ([1]; all tested TASK channel constructs, 50, 100 & 300 μM): ≤ 13%
